In the supplement of paper PMC4954754:
Several values for one entry are separate records, joined by “and”; a condition that tells them apart may be missing. Identical values can stand only once. ± gives the uncertainty stated by the source.

Key:
Details in all cases: 18 h
HEK293T-Rex XBP1-RLuc [1] = experiment: maximal XBP1-RLuc activation from dose-response fit, relative to thapsigargin (% of thapsigargin); higher = stronger activation
Procedure: (§1)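 Dose-response of hit compounds in HEK293T-Rex cells stably expressing ERSE-FLuc or XBP1-RLuc reporters, 18 hr treatment, 1536-well; luminescence normalised to 500 nM thapsigargin (100%) and DMSO (0%), fitted to give EC50 (M) and maximal activation; '>' marks EC50 above the top tested dose (~17 µM).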

HEK293T-Rex ERSE-FLuc [2] = experiment: maximal ERSE-FLuc activation from dose-response fit, relative to thapsigargin (% of thapsigargin); higher = stronger activation
Procedure: as §1

HEK293T-Rex XBP1-RLuc [3] = experiment: EC50 for XBP1-RLuc reporter activation
Procedure: as §1

HEK293T-Rex ERSE-FLuc [4] = experiment: EC50 for ERSE-FLuc reporter activation
Procedure: as §1

Structure (SMILES)	maximal XBP1-RLuc activation (HEK293T-Rex XBP1-RLuc [1])	maximal ERSE-FLuc activation (HEK293T-Rex ERSE-FLuc [2])	EC50 for XBP1-RLuc reporter activation (HEK293T-Rex XBP1-RLuc [3])	EC50 for ERSE-FLuc reporter activation (HEK293T-Rex ERSE-FLuc [4])
COc1ccc(-c2nn(-c3ccccc3)cc2/C=C/C(=O)O)cc1[N+](=O)[O-]	6.98 ± 2.8	20.8 ± 4.1	> 18.5 µM	> 18.5 µM
Nc1nc(Nc2ccc(Cl)c(Cl)c2)nc2ccccc12	61.9 ± 4	138 ± 11	12.3 µM	7.93 µM
CCc1nc2sc(C(=O)c3ccccc3)c(N)c2cc1C	4.69 ± 3.2	25.4 ± 6.3	> 16.3 µM	> 16.3 µM
CCN(CC)c1ccc2cc(-c3nc4ccccc4n3C)c(=O)oc2c1	2.95 ± 3.5	22.8 ± 1.6	> 10.6 µM	> 10.6 µM
COc1ccccc1-c1nnc(Nc2nc3c(OC)cccc3s2)o1	12.5 ± 1	32.7 ± 3	> 16.9 µM	> 16.9 µM
Cc1cc(C)nc(/N=C(\N)Nc2ccc(OCc3ccc(Cl)cc3)cc2)n1	88.2 ± 3.4	47.3 ± 7.6	2.03 µM	> 14 µM
CCOc1ccc(NC(=O)c2ccc3c(c2)OCO3)c([N+](=O)[O-])c1	0.524 ± 1.2	14.7 ± 3	> 18.6 µM	> 18.6 µM
O=C(/C=C/c1ccco1)Nc1ccc(Br)cc1Cl	4.5 ± 6.9	23.5 ± 2.5	> 16.9 µM	> 16.9 µM
OCCNc1nc(Nc2ccc(Cl)c(Cl)c2)nc2ccccc12	73.7 ± 9	144 ± 47	4.98 µM	4.13 µM
Nc1ccc2nc(-c3ccccn3)[nH]c2c1	22 ± 0.38	16.8 ± 4.6	> 16.9 µM	> 16.9 µM
O=c1[nH]c(/C=C2\C=Nc3ccccc32)c(O)n1-c1ccc(Cl)cc1	89 ± 4.6	44.1 ± 7.8	4.87 µM	> 16.9 µM
Cc1ccc(O)c(NC(=O)c2cc(-c3ccco3)on2)c1	34.4 ± 4.2	167.3 ± 1.6	> 16.9 µM	4.85 µM
Cc1cnc(NC(=O)c2sc3nc4c(C)cccc4cc3c2N)s1	96.9 ± 3.6	58.9 ± 6.1	6.88 µM	11.5 µM
CC(=O)Nc1ccc2nc(-c3ccc(OC(C)=O)cc3)sc2c1	67 ± 2.2	15.7 ± 1.8	11.3 µM	> 16.9 µM
COc1ccc(CCNC(=O)c2cccc(-c3ccc(N4CCOCC4)nc3)c2)cc1	2.04 ± 0.93	15.9 ± 4.6	> 17 µM	> 17 µM
COc1cccc(-c2cc(C(=O)Nc3cc(C)ccc3O)on2)c1	25.6 ± 5.2	87 ± 20	> 16.9 µM	8.72 µM
Nc1ccc2nc(/C=C/c3ccccc3)[nH]c2c1	23.8 ± 1.7	34.4 ± 4.7	> 15.3 µM	> 15.3 µM
Cc1ccc(O)c(N=CC2=C(O)c3ccccc3C2=O)c1	35.5 ± 4.2	74.8 ± 16	> 16.9 µM	3.75 µM
N#Cc1c(NC(=O)c2cccc(F)c2)sc2c1CCC2	2.22 ± 1.6	19.5 ± 3.1	> 16.5 µM	> 16.5 µM
Cc1ccc(/C=N/NC(=O)c2cccc(Cl)c2)cc1	3.19 ± 1.2	36.9 ± 7.8	> 16.9 µM	> 16.9 µM
COc1ccc(-c2cc(C(=O)Nc3cc(C)ccc3O)on2)cc1OC	9.55 ± 5.6	29.1 ± 5.3	> 16.9 µM	> 16.9 µM
Cc1cc2nc(-c3ccc(SCC#N)nc3)[nH]c2cc1C	8.52 ± 0.53	20.4 ± 3.8	> 16.9 µM	> 16.9 µM

Structure (SMILES)	maximal XBP1-RLuc activation (HEK293T-Rex XBP1-RLuc [1])	maximal ERSE-FLuc activation (HEK293T-Rex ERSE-FLuc [2])	EC50 for XBP1-RLuc reporter activation (HEK293T-Rex XBP1-RLuc [3])	EC50 for ERSE-FLuc reporter activation (HEK293T-Rex ERSE-FLuc [4])
Nc1ccc2nc(-c3cc(Cl)c(N)c(Cl)c3)[nH]c2c1	13.1 ± 1.1	22.7 ± 10	> 13 µM	> 13 µM
C/C(=N\NC(=O)c1n[nH]c2c1CCCC2)c1ccc(Br)cc1	8.77 ± 2	32.5 ± 9.9	> 16.9 µM	> 16.9 µM
CC(=O)Oc1ccc(C(=O)OCc2ccc(Cl)cc2)cc1OC(C)=O	24.7 ± 3.7	40.4 ± 4.3	> 18.6 µM	> 18.6 µM
COc1cc2ccccc2cc1C(=O)N/N=C/c1cccs1	5.33 ± 6.5	21.5 ± 3.6	> 16.9 µM	> 16.9 µM
O=[N+]([O-])c1ccc(N/N=C/c2ccccc2O)cc1	68.9 ± 7.5	44.5 ± 7.8	13 µM	> 16.9 µM
Nc1ccccc1NC(=O)c1ccc(Cl)cc1	34.9 ± 0.91	82.8 ± 4.7	> 17.2 µM	7.9 µM
Oc1ccc(-c2csc(-c3ccccc3)n2)cc1O	65.9 ± 7.2	65.2 ± 8.8	11.3 µM	5.39 µM
COc1ccccc1/C=N/Nc1nc(-c2ccccc2)cc(=O)[nH]1	5.2 ± 9.3	28.3 ± 0.49	> 16.9 µM	> 16.9 µM
COc1ccc(C2C=C3Oc4ccccc4N=C3NN2)cc1 (configuration not stated)	14.1 ± 2.1	27 ± 2.8	> 16.9 µM	> 16.9 µM
Oc1ccc(/C=N/Nc2cccc(Cl)n2)c(O)c1	33.6 ± 1.8	24.4 ± 4.8	> 16.9 µM	> 16.9 µM
O=C(Nc1ccc2nc(NC(=O)C3CCCCC3)sc2c1)C1CCCCC1	5.73 ± 2.7	13.9 ± 2.4	> 10.2 µM	> 10.2 µM
COc1ccc(C(=O)Nc2nnc(-c3cccs3)s2)cc1	1.9 ± 0.9	18.8 ± 1.5	> 16.9 µM	> 16.9 µM
C/C=C(/C)C(=O)O[C@H]1C(C)=C2[C@H]([C@@H]1OC(=O)CCCCCCC)[C@@](C)(OC(C)=O)C[C@H](OC(=O)CCC)[C@@]1(O)[C@H]2OC(=O)[C@@]1(C)O	127 and 103	100 and 87.8	0.11 µM and 0.146 µM	0.07 µM and 0.0669 µM
Oc1ccc(/C=N/Nc2cccc3cccnc23)cc1O	35 ± 3.2	30.7 ± 5.1	> 16.9 µM	> 16.9 µM
O=C(Nc1ccc(O)cc1)c1ccc2ccccc2c1	16.2 ± 1.5	31.4 ± 2.5	> 16.9 µM	> 16.9 µM
O=C(N/N=C/c1ccc(Cl)cc1Cl)c1ccc(O)c(O)c1	47 ± 2.7	32.6 ± 8	> 16.9 µM	> 16.9 µM
Cc1ccc(O)c(NC(=O)CN(C)S(=O)(=O)c2ccc(Cl)cc2)c1	31.4 ± 0.96	43.4 ± 10	> 16.9 µM	> 16.9 µM
OCCNc1nc(Nc2ccc(Br)cc2)nc2ccccc12	57 ± 8.1	132 ± 7.4	7.94 µM	4.93 µM
Cc1ccc(O)c(NC(=O)c2cc(-c3ccc(F)cc3)on2)c1	18.8 ± 3.2	31 ± 7.9	> 16.9 µM	> 16.9 µM
COc1ccc(-c2csc(-c3ccc(O)cc3)n2)cc1	33.9 ± 1.9	30.9 ± 6.5	> 19.1 µM	> 19.1 µM
COc1cccc(C(=O)Nc2sc3c(c2C#N)CC(C)CC3)c1 (configuration not stated)	2.09 ± 1.1	23.5 ± 8	> 16.6 µM	> 16.6 µM
